Reference: US20260242394A1, “USP2 INHIBITORS AND METHODS OF USING THE SAME FOR THE TREATMENT OF DISEASES” (ICAHN SCHOOL OF MEDICINE AT MOUNT SINAI, priority 2023, published 2026)

Tested on: ACE2-dependent pseudotypes
Assay type: cell-based

With Cc1ccc(S(=O)(=O)Nc2ccc(C(F)(F)F)cc2C(=O)Nc2nc(-c3ccc(Br)cc3)cs2)cc1 [XH161-102 (MS102), N-(4-(4-bromophenyl)thiazol-2-yl)-2-((4-methylphenyl)sulfonamido)-5-(trifluoromethyl)benzamide] the “activity in preventing cell entry of ACE2-dependent pseudotypes” value was “enhanced activity”.
